Measured values published in US20070020234A1, “Inhibition of tumor angiogenesis by combination of thrombospondin-1 and inhibitors of vascular endothelial growth factor” (priority 2003, published 2007).
Entries after “also recorded” stand apart in the source; their conditions may differ.

Columns and labels:
[1] = test system: VEGF expression; assay: Northern blot of VEGF expression; type: cell-based, human; conditions: for VEGF expression in the absence of HGF/SF induction: inhibitor 24 hours, LF at 1, 3 or 9 μg/ml (FIG. 2D); for expression of VEGF induced by HGF/SF: inhibitor followed by HGF/SF for 24 hours; for VEGF expression (up-regulation by HGF/SF): SK-LMS-1 and MDA-MB-231 cells (FIGS. 2B/1, 2B/2); for VEGF expression after HGF/SF treatment: HGF/SF 200 units/ml
Procedure: (§1) FIG. 1A-1C. HGF/SF up-regulates VEGF and down-regulates TSP-1 expression in SK-LMS-1 cells (FIG. 1A) and MDA-MB-231 cells (FIG. 1B) and HUVEC cells (FIG. 1C). Total RNAs were prepared from SK-LMS-1 cells, MDA-MB-231 cells or HUVEC with or without treatment of recombinant human HGF/SF (200 units/ml) at the indicated time points after stimulation. Total RNAs were also prepared from the SK/HGF cell line, a long-term culture derivative of SK-LMS-1 cells that is autocrine for human HGF/SF (15). Northern Blot was probed with ^32P-radiolabeled TSP-1, VEGF or G3PDH cDNA fragment, respectively. For HUVEC, treatment of recombinant human HGF/SF (200 units/ml) was for 24 hours in the presence or absence of fetal bovine serum (FBS) and Northern Blot analyses were performed using ^32P-radiolabelled probe for human TSP-1, VEGF or GAPDH, respectively. TSP-1 expression in HUVEC cells was decreased in response to HGF/SF treatment. However, VEGF expression was undetectable with or without HGF/SF treatment.
(§2) FIG. 2A: HGF/SF induces activation of MAP kinase and PI3 kinase pathways in SK-LMS-1 cells and MDA-MB-231 cells. Serum-starved cells were treated with or without DMSO (control), PD98059 (80 μM), U0126 (40 μM) or LY294002 (40 μM) for 1 hour, followed by HGF/SF stimulation for 15 minutes (A time point good for observing all the tyrosine phosphorylation statuses). Whole cell extracts were prepared and the state of Met phosphorylation was detected by immunoprecipitation with anti-human Met antibody, followed by Western blot with anti-Phosphotyrosine (and/or anti-human Met antibody). For detection of Erk and Akt, Western blots were probed with anti-phospho p44/42 MAPK, anti-p44/42 MAPK, anti-phospho Akt (Ser473) or anti-Akt antibodies, respectively. FIG. 2B: Negative regulation of TSP-1 expression occurs primarily through the MAP kinase pathway, while positive regulation of VEGF expression occurs through MAP kinase and PI3 kinase pathway. Total RNAs were prepared from cells with or without inhibitor treatment and/or HGF/SF treatment. Northern Blot analyses were performed as described in FIG. 1A-caption. […] Up-regulation of VEGF was inhibited by PD98059, U0126 as well as LY294002. […]: VEGF but not TSP-1 expression was regulated by Stat3 signaling. Total RNAs were prepared from SK/HGF cells with or without overexpression of a dominant negative form of Stat3, Stat3 (17). […] FIG. 2D: LF increases TSP-1 and decreases VEGF expression in MDA-MB-231 human breast cancer cells. Cells were treated with or without indicated inhibitors for 24 hours and then total RNAs were prepared. Northern Blot analyses were performed using ^32P-radiolabelled probe for human TSP-1, VEGF or GAPDH, respectively.
(§3) VEGF was also elevated in long term cultures of SK-LMS-1 cells autocrine for HGF/SF (SK/HGF, 15) (FIG. 1A). […] This effect was seen as early as 6 hours after HGF treatment and continued to 48 hours. More dramatically, TSP-1 expression was eliminated in the SK/HGF cell line.
(§4) HGF/SF, acting through its tyrosine kinase receptor, Met, is known to activate several intracellular signaling pathways, including MAP kinase, PI3 kinase and Stat3 (1, 16). The present inventors asked which pathways might be involved in regulating VEGF and TSP-1 expression. The present inventors treated SK-LMS-1 and MDA-MB-231 cells with (or without) various inhibitors for one hour, followed by HGF/SF stimulation for 15 minutes (FIGS. 2A/1 and 2A/2). Met receptor is tyrosine-phosphorylated in response to HGF/SF, followed by the activation of downstream targets of Erk p44/42 MAPK) and Akt/PI3 kinase. […] RNA samples from SK-LMS-1 and MDA-MB-231 cells treated with individual inhibitors followed by HGF/SF treatment for 24 hours were analyzed by Northern Blot analyses. HGF/SF-induced shut off of TSP-1 was blocked by PD98059 or U0126 but was not affected by LY294002 (FIGS. 2B/1-2B/2), nor by overexpression of Stat3B, a dominant-negative form of Stat3 (FIG. 2C) (17). […]

[2] = test system: Erk (p44/42 MAPK); assay: Western blot of Erk (p44/42 MAPK) activation after HGF/SF stimulation; type: cell-based, human; conditions: for constitutive level of MAP kinase activity: MDA-MB-231 cells (FIG. 2A/2); for activation of Erk in response to HGF/SF: SK-LMS-1 and MDA-MB-231 cells, inhibitor 1 hour (PD98059 80 μM, U0126 40 μM), then HGF/SF 15 minutes
Procedure: as §2
HGF/SF, acting through its tyrosine kinase receptor, Met, is known to activate several intracellular signaling pathways, including MAP kinase, PI3 kinase and Stat3 (1, 16). The present inventors asked which pathways might be involved in regulating VEGF and TSP-1 expression. The present inventors treated SK-LMS-1 and MDA-MB-231 cells with (or without) various inhibitors for one hour, followed by HGF/SF stimulation for 15 minutes (FIGS. 2A/1 and 2A/2). Met receptor is tyrosine-phosphorylated in response to HGF/SF, followed by the activation of downstream targets of Erk p44/42 MAPK) and Akt/PI3 kinase. […] RNA samples from SK-LMS-1 and MDA-MB-231 cells treated with individual inhibitors followed by HGF/SF treatment for 24 hours were analyzed by Northern Blot analyses. HGF/SF-induced shut off of TSP-1 was blocked by PD98059 or U0126 but was not affected by LY294002 (FIGS. 2B/1-2B/2), nor by overexpression of Stat3B, a dominant-negative form of Stat3 (FIG. 2C) (17). […] In MDA-MB-231 cells, the present inventors observed a dramatic effect from the MEK MAP kinase inhibitors on TSP-1 (FIG. 2B/2).

[3] = test system: TSP-1 expression; assay: Northern blot of TSP-1 expression; type: cell-based, human; conditions: for TSP-1 expression relative to basal level after inhibitor treatment: MDA-MB-231 cells (FIG. 2B/2); for TSP-1 expression in the absence of HGF/SF induction: inhibitor 24 hours, LF at 1, 3 or 9 μg/ml (FIG. 2D); for HGF/SF-induced shut off (down-regulation) of TSP-1: SK-LMS-1 and MDA-MB-231 cells, inhibitor followed by HGF/SF for 24 hours
Procedure: as §1, §2, §3, §4

[4] = test system: VEGF; conditions: cited from earlier work
[5] = test system: SK/HGF cells; assay: Cell proliferation and anchorage-independent growth in vitro; type: cell-based, human; conditions: TSP-1 overexpression compared with parental SK/HGF cells in vitro
Description: FIGS. 5A and 5B are graphs showing that overexpression of TSP-1 has no effect on cell proliferation or anchorage-independent growth compared the parental SK/HGF cells in vitro.
TSP-1 was overexpressed in SK/HGF cells to generate SK/HGF-TSP1 cells (FIG. 3A). Overexpression of TSP-1 has no effect on cell proliferation or anchorage-independent growth compared the parental SK/HGF cells in vitro (FIGS. 5A-5B). To test whether TSP-1 influences tumorigenicity, the present inventors SK/HGF and SK/HGF-TSP1 cells were subcutaneously implanted in athymic nude mice, and their tumor growth rates were compared. At early times, no growth differences were observed between the SK/HGF and SK/HGF-TSP1 groups. However, when the tumors grew to a certain size, differences between became more apparent (Student's t test p<0.025). […] TSP-1 protein expression was confirmed in the SK/HGF-TSP1 tumor group by Western blot analysis (FIG. 3D).

[6] = test system: tumor angiogenesis (CD31-positive vessels); assay: CD31 immunohistochemical staining of blood vessels in tumor sections; type: in vivo, athymic nude mice; conditions: SK/HGF-TSP1 versus SK/HGF tumors; P<0.01
Description: FIGS. 4A and 4B/1-4B/6 are a graph and photomicrographs showing that TSP-1 inhibits HGF/SF-induced tumor angiogenesis. […] Three fields (10× magnification) from each stained tumor section were photographed and the numbers of CD31-positive vessels (brown staining) were scored. The numbers represent the average number of blood vessels in sections from four tumors for each group (P<0.01).
To test whether the inhibition of tumor growth by TSP-1 was due to an extrinsic effect by preventing tumor angiogenesis, the present inventors performed immunohistochemical staining using antibodies against mouse endothelial cell surface marker CD31 to detect the number of blood vessels in SK/HGF and SK/HGF-TSP-1 tumor sections.

[7] = test system: SK/HGF tumor xenografts; assay: Subcutaneous tumor growth of SK/HGF-TSP1 versus SK/HGF cells in athymic nude mice; type: in vivo; conditions: TSP-1 overexpression in SK/HGF cells implanted subcutaneously in athymic nude mice; p<0.025
Description: FIG. 3A-3D. TSP-1 inhibits HGF/SF-induced tumor growth in vivo. FIG. 3A: TSP-1 was ectopically expressed in SK/HGF cells, establishing the SK/HGF-TSP 1 cell line. The expression of TSP-1 in SK/HGF-TSP1 cells was confirmed by Northern blot analysis. FIG. 3B: Tumor growth of SK-LMS cells and the influence of TSP-1 overexpression. SK-LMS-1 control cells, SK/HGF control cells and SK/HGF-TSP 1 cells (clone 26) were subcutaneously implanted in athymic nude mice, respectively. The animals were monitored for tumor growth and tumor volumes (Tvol) were measured twice a week. The Tvol values represent an average of four mice for each group (P<0.025). FIG. 3C: Visualization of the tumors at sacrifice. FIG. 3D: TSP-1 protein in tumor xenografts is derived from SK/HGF-TSP1 cells. Cell extracts were prepared from fresh tumors and TSP-1 protein was detected by anti-TSP-1 antibody under denatured condition.
TSP-1 was overexpressed in SK/HGF cells to generate SK/HGF-TSP1 cells (FIG. 3A). Overexpression of TSP-1 has no effect on cell proliferation or anchorage-independent growth compared the parental SK/HGF cells in vitro (FIGS. 5A-5B). To test whether TSP-1 influences tumorigenicity, the present inventors SK/HGF and SK/HGF-TSP1 cells were subcutaneously implanted in athymic nude mice, and their tumor growth rates were compared. […]

[8] = HUVEC, HGF/SF 200 units/ml for 24 hours

Compound: N#CC(=C(/N)Sc1ccccc1N)/C(C#N)=C(\N)Sc1ccccc1N [U0126]
- VEGF expression in the absence of HGF/SF induction ([1]; MDA-MB-231 cells): down-regulation of VEGF
- expression of VEGF induced by HGF/SF ([1]; MDA-MB-231 cells): suppressed
- VEGF expression (up-regulation by HGF/SF) [1]: inhibited
- expression of VEGF induced by HGF/SF ([1]; SK-LMS-1 cells): only slightly
- constitutive level of MAP kinase activity [2]: inhibited
- activation of Erk in response to HGF/SF [2]: blocked the activation of Erk
- TSP-1 expression relative to basal level after inhibitor treatment [3]: higher than the basal level
- TSP-1 expression in the absence of HGF/SF induction ([3]; MDA-MB-231 cells): up-regulation of TSP-1
- HGF/SF-induced shut off (down-regulation) of TSP-1 [3]: blocked; also recorded: inhibited

Compound: HGF/SF: recombinant human hepatocyte growth factor/scatter factor, ligand of the Met receptor
- VEGF expression with or without HGF/SF treatment [1, 8]: undetectable
- VEGF expression after HGF/SF treatment ([1]; MDA-MB-231 cells, persisted for 48 hours): levels of VEGF increased
- VEGF expression after HGF/SF treatment ([1]; SK-LMS-1 cells, up to 48 hours): induced VEGF
- TSP-1 expression after HGF/SF treatment [3, 8]: decreased
- TSP-1 expression after HGF/SF treatment ([3]; MDA-MB-231 cells, 24 and 48 hours after HGF treatment): down-regulation of TSP-1
- TSP-1 expression after HGF/SF treatment ([3]; SK-LMS-1 cells, HGF/SF 200 units/ml, 6 to 48 hours): significant decrease in TSP-1 expression

Compound: VEGF-Trap: soluble decoy VEGF receptor fused to IgG; high-affinity VEGF blocker
- tumor growth and vascularization in vivo ([4]; Holash et al.): effectively suppressed tumor growth and vascularization
- vasculature in established xenografts ([4]; Huang et al., followed by tumor regression including lung micrometastases): abolished mature, preexisting vasculature

Compound: COc1cccc(-c2cc(=O)c3ccccc3o2)c1N [PD98059]
- VEGF expression in the absence of HGF/SF induction ([1]; MDA-MB-231 cells): down-regulation of VEGF
- expression of VEGF induced by HGF/SF ([1]; MDA-MB-231 cells): suppressed
- VEGF expression (up-regulation by HGF/SF) [1]: inhibited
- expression of VEGF induced by HGF/SF ([1]; SK-LMS-1 cells): only slightly
- constitutive level of MAP kinase activity [2]: inhibited
- activation of Erk in response to HGF/SF [2]: blocked the activation of Erk
- TSP-1 expression relative to basal level after inhibitor treatment [3]: higher than the basal level
- TSP-1 expression in the absence of HGF/SF induction ([3]; MDA-MB-231 cells): up-regulation of TSP-1
- HGF/SF-induced shut off (down-regulation) of TSP-1 [3]: blocked; also recorded: inhibited

Compound: TSP-1: thrombospondin-1, angiogenesis antagonist; tested by ectopic overexpression in SK/HGF cells
- cell proliferation or anchorage-independent growth [5]: no effect
- neovascularization (number of CD31-positive vessels) in tumors [6]: Decreased neovascularization
- HGF/SF-dependent tumor growth [7]: partially inhibited
